The values that follow come from patent EP2308883A1, “New derivatives of thieno[2,3-b]pyridine and 5,6,7,8 tetrahydrothieno[2,3 b]quinoline in particular useful in the treatment of malaria” (priority 2009, dated 2011).

Like-named read-outs stand apart in the source and are kept apart here. A value given as a limit tells only on which side of the number the result lay.

For experiment [1], the target named is Mammalian GSK-3 (GSK-3α/β). Briefly: Kinase assay with native porcine GSK3 purified from porcine brain, GS-1 peptide and [γ-33P] ATP. It counts as biochemical. As to conditions: for anti-mammalian GSK-3 IC50 values: result in words. How it is done: Porcine GSK3 (GSK-3α/β) was purified from porcine brain by affinity chromatography on immobilized axin according to the protocol described in Primot et al (Protein Expression and Purification 20, 394-404, 2000).
Both porcine GSK3 and PfGSK3 were assayed with 40 µM GS-1 peptide, a specific GSK-3 substrate, ([…]pEDEEE, synthesized by the Peptide Synthesis Unit, Institute of Biomolecular Sciences, University of Southampton, U.K.), in buffer A (25 mM Tris-HCl pH 7.5, 10 mM MgC12, 1 mM EGTA, 1 mM DTT, 50 µg heparin/ml, 0.5 mg BSA/ml) in the presence of 15 µM [γ-^33P] ATP (3000 Ci/mmol; 1 mCi/ml) in a final volume of 30 µl. After 30 min. incubation at 30°C, 25 µl aliquots of supernatant were spotted onto 2.5 x 3 cm pieces of Whatman P81 phosphocellulose paper, and, 20 sec. later, the filters were washed five times (for at least 5 min. each time) in 1 % phosphoric acid. The wet filters were counted in the presence of 1 ml ACS (Amersham) scintillation fluid. The kinase activity was expressed in pmoles phosphate incorporated in GS-1 or in percentage of the maximal activity.

Experiment [2] deals with T1, GSK-3 (Trypanosoma cruzi, UniProt Q4E1X0).
T1 sequence (Q4E1X0 1-353): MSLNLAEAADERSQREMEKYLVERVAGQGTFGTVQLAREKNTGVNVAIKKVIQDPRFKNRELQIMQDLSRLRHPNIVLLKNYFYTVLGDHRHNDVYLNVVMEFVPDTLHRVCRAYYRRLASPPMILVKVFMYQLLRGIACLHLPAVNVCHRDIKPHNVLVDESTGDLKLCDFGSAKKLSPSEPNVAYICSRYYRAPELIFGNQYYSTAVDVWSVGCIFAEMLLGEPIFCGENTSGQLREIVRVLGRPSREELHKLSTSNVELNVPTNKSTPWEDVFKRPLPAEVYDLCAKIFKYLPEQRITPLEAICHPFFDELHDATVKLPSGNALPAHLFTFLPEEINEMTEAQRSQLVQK
The experiment in a line: Species specificity: recombinant tagged GSK-3 orthologue kinase assay. It counts as biochemical.

In experiment [3] the target is T2, GSK-3 (Plasmodium knowlesi, UniProt A0A679KU36).
T2 sequence (A0A679KU36 1-473): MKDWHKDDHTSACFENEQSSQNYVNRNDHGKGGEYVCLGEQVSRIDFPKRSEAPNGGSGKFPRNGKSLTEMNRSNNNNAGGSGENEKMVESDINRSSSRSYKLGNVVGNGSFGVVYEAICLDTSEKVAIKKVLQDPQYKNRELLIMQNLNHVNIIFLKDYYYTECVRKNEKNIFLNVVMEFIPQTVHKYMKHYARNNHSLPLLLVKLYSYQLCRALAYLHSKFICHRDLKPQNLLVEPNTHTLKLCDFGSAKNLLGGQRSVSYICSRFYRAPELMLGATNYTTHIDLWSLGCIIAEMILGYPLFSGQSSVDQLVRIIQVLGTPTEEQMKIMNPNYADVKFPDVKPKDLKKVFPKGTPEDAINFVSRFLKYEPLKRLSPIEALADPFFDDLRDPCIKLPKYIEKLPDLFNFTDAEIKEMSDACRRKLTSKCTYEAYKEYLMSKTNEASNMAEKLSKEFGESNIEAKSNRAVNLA
The description is as above. It counts as biochemical.

The target in another experiment is GSK-3 α/β. Described as above. Format: biochemical. The conditions noted are these: calculated from dose-response curves; -(100) taken as no inhibition at 100; read-out: IC50 Sus scrofa (GSK-3 α/β). From the text: (§1) Given the strong conservation of GSK-3 across evolution and the surprising selectivity of the compounds according to the present invention towards PfGSK-3 versus mammalian GSK-3, a selection of 12 GSK-3 orthologues of various species chosen on the "tree of life" analyzed. The species belong to the Apicomplexa (P. falciparum, P. vivax, P. knowlesi and P. berghei (Gardner, M.J. et al. Genome sequence of the human malaria parasite Plasmodium falciparum. Nature 419, 498-511 (2002); Carlton, J.M. et al. Comparative genomics of the neglected human malaria parasite Plasmodium vivax. Nature 455, 799-803 (2008); Pain, A. et al. The genome of the simian and human malaria parasite Plasmodium knowlesi. Nature 455, 799-803 (2008).). Toxoplasma gondii (Qin, C.L., Tang, J. and Kim, K. Cloning and in vitro expression of TPK3, a Toxoplasma gondii homologue of shaggy/glycogen synthase kinase-3 kinases. Mol. Biochem. Parasitol. 93, 273-283 (1998)), Cryptosporidium parvum.
(§2) Following PCR amplification from cDNA libraries or direct synthesis based on databases sequences, the GSK-3 genes were inserted in appropriate expression vectors and recombinant, tagged kinases were expressed, affinity purified and assayed in the presence of up to 10-100µM of each compound of formula (I) according to the present invention and a selection of the PfGSK-3 inhibitors.

In the next experiment the target is T3, GSK- 3 β (Homo sapiens, UniProt P49841).
T3 construct: made in house
The experiment is described as above. It counts as biochemical. As to conditions: calculated from dose-response curves; -(100) taken as no inhibition at 100.
From the text: as §1, §2

For experiment [4], the target named is T4, GSK-3 (Plasmodium falciparum, UniProt O77344).
T4 construct: made in house
Described as above. It counts as biochemical.
From the text: as §1, §2

In experiment [5] the target is T5, GSK-3 (Dictyostelium discoideum, UniProt P51136).
T5 construct: made in house
The description is as above. Format: biochemical.
From the text: as §1, §2

The target in another experiment is T6, GSK-3 α (Homo sapiens, UniProt P49840).
T6 construct: made in house
The description is as above. As to conditions: calculated from dose-response curves; -(100) taken as no inhibition at 100. It counts as biochemical.
From the text: as §1, §2

Experiment [6] addresses T7, GSK-3 (Leishmania major, UniProt Q4QE15).
T7 construct: made in house
The experiment is described as above. It counts as biochemical, Leishmania majo.
From the text: as §1, §2

The mark [7] stands for this setting: calculated from dose-response curves; -(100) taken as no inhibition at 100; read-out: IC50 Trypanopsoma cruzi.
[8] abbreviates: calculated from dose-response curves; read-out: IC50 Plasmodium knowlesi.
[9] abbreviates: -(10) taken as no inhibition at 10, read-out: IC50 Mammalian GSK-3.
Setting [10] is: read-out: IC50 Trypanopsoma cruzi; calculated from dose-response curves; -(100) taken as no inhibition at 100.
The mark [11] stands for this setting: read-out: IC50 Plasmodium knowlesi; calculated from dose-response curves.

T5 sequence (P51136 whole entry): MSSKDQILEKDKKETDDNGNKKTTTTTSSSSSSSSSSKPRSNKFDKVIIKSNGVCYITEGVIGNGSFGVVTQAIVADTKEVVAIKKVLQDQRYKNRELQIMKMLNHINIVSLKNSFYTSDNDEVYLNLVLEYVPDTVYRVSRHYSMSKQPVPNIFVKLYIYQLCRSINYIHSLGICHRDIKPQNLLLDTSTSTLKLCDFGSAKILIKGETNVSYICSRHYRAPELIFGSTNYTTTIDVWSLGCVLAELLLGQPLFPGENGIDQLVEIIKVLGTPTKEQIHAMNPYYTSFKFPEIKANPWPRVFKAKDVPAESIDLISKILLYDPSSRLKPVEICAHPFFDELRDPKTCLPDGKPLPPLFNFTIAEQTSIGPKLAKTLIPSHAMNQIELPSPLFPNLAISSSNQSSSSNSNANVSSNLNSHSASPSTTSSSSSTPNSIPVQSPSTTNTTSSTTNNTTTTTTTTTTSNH
T7 sequence (Q4QE15 entry or part of it): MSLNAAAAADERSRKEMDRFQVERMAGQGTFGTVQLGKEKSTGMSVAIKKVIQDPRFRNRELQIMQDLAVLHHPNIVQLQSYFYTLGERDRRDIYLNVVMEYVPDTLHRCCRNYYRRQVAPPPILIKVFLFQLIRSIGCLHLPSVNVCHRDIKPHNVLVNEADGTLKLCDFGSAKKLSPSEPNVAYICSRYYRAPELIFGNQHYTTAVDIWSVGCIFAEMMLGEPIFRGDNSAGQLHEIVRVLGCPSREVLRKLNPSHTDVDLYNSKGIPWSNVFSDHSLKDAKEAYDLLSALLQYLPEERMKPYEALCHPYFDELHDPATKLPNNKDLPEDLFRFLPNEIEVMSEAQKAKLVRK
T3 sequence (P49841 whole entry): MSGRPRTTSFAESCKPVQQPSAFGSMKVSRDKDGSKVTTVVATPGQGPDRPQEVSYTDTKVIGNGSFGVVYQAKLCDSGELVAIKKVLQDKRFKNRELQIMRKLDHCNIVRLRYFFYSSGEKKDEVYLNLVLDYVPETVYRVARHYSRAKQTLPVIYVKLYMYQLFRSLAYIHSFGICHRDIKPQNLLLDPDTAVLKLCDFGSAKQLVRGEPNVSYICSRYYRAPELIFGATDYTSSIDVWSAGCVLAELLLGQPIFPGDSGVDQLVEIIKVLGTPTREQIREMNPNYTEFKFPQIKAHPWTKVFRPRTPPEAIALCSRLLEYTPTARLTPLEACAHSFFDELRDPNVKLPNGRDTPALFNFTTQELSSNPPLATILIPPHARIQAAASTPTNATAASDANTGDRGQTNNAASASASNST
T4 sequence (O77344 entry or part of it): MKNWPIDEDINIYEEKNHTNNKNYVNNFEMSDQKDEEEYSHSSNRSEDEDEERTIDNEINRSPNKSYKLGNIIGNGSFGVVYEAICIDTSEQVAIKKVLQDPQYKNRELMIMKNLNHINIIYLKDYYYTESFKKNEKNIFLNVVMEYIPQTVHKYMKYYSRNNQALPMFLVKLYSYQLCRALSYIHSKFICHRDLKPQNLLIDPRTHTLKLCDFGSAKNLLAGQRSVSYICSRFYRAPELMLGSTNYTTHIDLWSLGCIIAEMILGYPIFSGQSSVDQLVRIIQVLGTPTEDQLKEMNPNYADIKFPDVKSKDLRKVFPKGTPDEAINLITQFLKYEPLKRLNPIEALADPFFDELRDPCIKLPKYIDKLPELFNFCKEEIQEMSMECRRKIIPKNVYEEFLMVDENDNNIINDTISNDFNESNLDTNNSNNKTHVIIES
T6 sequence (P49840 whole entry): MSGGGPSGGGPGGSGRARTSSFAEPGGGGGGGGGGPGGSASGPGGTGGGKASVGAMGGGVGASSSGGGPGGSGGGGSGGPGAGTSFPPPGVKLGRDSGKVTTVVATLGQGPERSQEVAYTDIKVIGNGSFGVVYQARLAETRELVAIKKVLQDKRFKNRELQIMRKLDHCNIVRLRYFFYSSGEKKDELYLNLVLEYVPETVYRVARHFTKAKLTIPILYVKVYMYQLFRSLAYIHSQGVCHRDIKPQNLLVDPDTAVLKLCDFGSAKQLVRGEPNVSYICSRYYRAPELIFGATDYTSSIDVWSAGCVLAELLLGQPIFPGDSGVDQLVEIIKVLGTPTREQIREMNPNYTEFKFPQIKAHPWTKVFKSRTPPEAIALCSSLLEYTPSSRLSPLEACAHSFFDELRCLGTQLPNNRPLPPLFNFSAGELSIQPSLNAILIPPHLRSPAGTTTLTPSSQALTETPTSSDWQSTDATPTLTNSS

With `N#Cc1c(N)nc2sc(C(=O)c3cccc(Cl)c3)c(N)c2c1-c1ccccc1Br` [Compound 20, 3,6-diamino-4-(2-bromophenyl)-2-(3-chlorobenzoyl)thieno[2,3-b]pyridine-5-carbonitrile], the “anti-mammalian GSK-3 IC50 values” in experiment [1] is “do not demonstrate good”. Moreover, the IC50 at GSK-3 [2] (setting [7]) was more than 100 µM; at GSK-3 [3] (setting [8]), 1.45 µM; at GSK-3 α/β, 5.6 µM; at GSK- 3 β it was 4 µM; at GSK-3 [4], 0.47 µM; at GSK-3 [5] it was 80 µM. For the same compound, the IC50 on GSK-3 α and at GSK-3 [6] was more than 100 µM throughout.

Take `N#Cc1c(N)nc2sc(C(=O)c3cccc(Cl)c3)c(N)c2c1-c1ccccc1Cl` [Compound 22, 3,6-diamino-2-(3-chlorobenzoyl)-4-(2-chlorophenyl)thieno[2,3-b]pyridine-5-carbonitrile]: the IC50 in [1] (setting [9]) was more than 10 µM; in experiment [1] (read-out: mammalian GSK-3α/β IC50), more than 10 µM; on GSK-3 [2] (setting [10]), more than 100 µM; on GSK-3 [3] (setting [11]) it was 2.45 µM; on GSK-3 α/β, more than 10 µM; at GSK- 3 β, 3.3 µM. Also, the IC50 on GSK-3 [4] was 0.41 µM; on GSK-3 [5], more than 10 µM; at GSK-3 α it was more than 100 µM; on GSK-3 [6], more than 100 µM. Further, the “anti-mammalian GSK-3 IC50 values” in experiment [1] is “do not demonstrate good”.

In the case of `N#Cc1c(N)nc2sc(C(=O)c3cccc(Cl)c3)c(N)c2c1-c1ccccc1I` [Compound 14, 3,6-diamino-2-(3-chlorobenzoyl)-4-(2-iodophenyl)thieno[2,3-b]pyridine-5-carbonitrile], in experiment [1], the “anti-mammalian GSK-3 IC50 values” was “do not demonstrate good”. For the same compound, the IC50 at GSK-3 [2] (setting [7]) was more than 100 µM; at GSK-3 [3] (setting [8]) it was 2.75 µM; at GSK-3 α/β, more than 100 µM; on GSK- 3 β, 50 µM; at GSK-3 [4] (read-out: IC50 Plasmodium falciparum, calculated from dose-response curves) it was 101 µM; at GSK-3 [5] it was more than 100 µM. Also, the IC50 on GSK-3 α and at GSK-3 [6] was more than 100 µM in each case.

In the case of `N#Cc1cccc(C(=O)c2sc3nc(N)c(C#N)c(-c4ccccc4Cl)c3c2N)c1` [Compound 26, 3,6-diamino-4-(2-chlorophenyl)-2-(3-cyanobenzoyl)thieno[2,3-b]pyridine-5-carbonitrile], the IC50 in [1] (setting [9]) is more than 10 µM; at GSK-3 [2] (setting [7]), more than 100 µM; on GSK-3 [3] (setting [8]) it was 6.5 µM; on GSK-3 α/β it was 22 µM; on GSK- 3 β, 8.1 µM; at GSK-3 [4], 0.21 µM. Moreover, the IC50 at GSK-3 [5] is more than 100 µM; at GSK-3 α, more than 25 µM; at GSK-3 [6] it was more than 100 µM. Besides, the “anti-mammalian GSK-3 IC50 values” in [1] is “do not demonstrate good”.

`COc1ccccc1-c1c(C#N)c(N)nc2sc(C(=O)c3ccccc3)c(N)c12` [Compound 2, 3,6-diamino-2-benzoyl-4-(2-methoxyphenyl)thieno[2,3-b]pyridine-5-carbonitrile]: the “anti-mammalian GSK-3 IC50 values” in experiment [1] is recorded as “do not demonstrate good”. In addition, the IC50 was more than 100 µM at GSK-3 [2] (setting [10]); 95 µM on GSK-3 [3] (setting [11]); more than 100 µM at GSK-3 α/β; 7.8 µM on GSK-3 [4]; more than 100 µM at GSK-3 [5]; more than 100 µM at GSK-3 α. Moreover, the IC50 at GSK-3 [6] was more than 100 µM.
